Columns and labels:
[1] = system: cotton; test: Preemergent control of plant species; format: in vivo, Gossypium spp.; settings: Gossypium hirsutum, pre-emergence, 336 h; 0.25 lb/acre; read-out: percent preemergent control
Outline: (§1)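 Seeds sown in agricultural soil in greenhouse beds, then aqueous-emulsion compositions applied uniformly to the bed surface at listed rates. Beds kept two weeks under greenhouse growth conditions with watering. Control expressed as growth reduction versus water-treated beds of the same species.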

[2] = system: rape; test: Preemergent control of plant species; format: in vivo, Brassica napus; settings: Brassica napus, pre-emergence, 336 h; 0.25 lb/acre; read-out: percent preemergent control
Outline: as §1

[3] = system: soybean; test: Preemergent control of plant species; format: in vivo, Glycine max.; settings: Glycine max, pre-emergence, 336 h; 0.25 lb/acre; read-out: percent preemergent control
Outline: as §1

[4] = system: sugar beet; test: Preemergent control of plant species; format: in vivo, Beta saccharifera; settings: Beta vulgaris, pre-emergence, 336 h; 0.25 lb/acre; read-out: percent preemergent control
Outline: as §1

[5] = system: jimsonweed; test: Preemergent control of plant species; format: in vivo, Datura stramonium; settings: Datura stramonium, pre-emergence, 336 h; 0.25 lb/acre; read-out: percent preemergent control
Outline: as §1

[6] = system: annual morning glory; test: Preemergent control of plant species; format: in vivo, Ipomoea spp.; settings: Ipomoea, pre-emergence, 336 h; 0.25 lb/acre; read-out: percent preemergent control
Outline: as §1

[7] = system: pigweed; test: Preemergent control of plant species; format: in vivo, Amaranthus spp.; settings: Amaranthus retroflexus, pre-emergence, 336 h; 0.25 lb/acre; read-out: percent preemergent control
Procedure: (§2) The seeds of various species of plants were planted in beds of good agricultural soil in a greenhouse. A number of compositions of the present invention, generally in the nature of an aqueous emulsion, were applied at rates listed in the table so as to deposit a predetermined amount of active ingredients uniformly throughout the surface of the bed. Another seed bed was treated only with water to serve as a control. After treatment the seed beds were maintained for two weeks under greenhouse conditions conducive for good plant growth and watered as necessary. Control refers to the reduction in growth compared to the observed results of the same untreated species.

[8] = system: velvetleaf; test: Preemergent control of plant species; format: in vivo, Abutilon theophrasti; settings: Abutilon theophrasti, pre-emergence, 336 h; 0.25 lb/acre; read-out: percent preemergent control
Outline: as §1

[9] = system: corn; test: Preemergent control of plant species; format: in vivo, Zea mays; settings: Zea mays, pre-emergence, 336 h; 0.25 lb/acre; read-out: percent preemergent control
Outline: as §1

[10] = system: rice; test: Preemergent control of plant species; format: in vivo, Oryza sativa; settings: Oryza sativa, pre-emergence, 336 h; 0.25 lb/acre; read-out: percent preemergent control
Outline: as §1

[11] = system: sorghum; test: Preemergent control of plant species; format: in vivo, Sorghum vulgare; settings: Sorghum, pre-emergence, 336 h; 0.25 lb/acre; read-out: percent preemergent control
Outline: as §1

[12] = system: wheat; test: Preemergent control of plant species; format: in vivo, Triticum aestivum; settings: Triticum aestivum, pre-emergence, 336 h; 0.25 lb/acre; read-out: percent preemergent control
Outline: as §1

[13] = system: barnyardgrass; test: Preemergent control of plant species; format: in vivo, Echinochloa crusgalli; settings: Echinochloa crus-galli, pre-emergence, 336 h; 0.25 lb/acre; read-out: percent preemergent control
Outline: as §1

[14] = system: crabgrass; test: Preemergent control of plant species; format: in vivo, Digitaria spp.; settings: Digitaria sanguinalis, pre-emergence, 336 h; 0.25 lb/acre; read-out: percent preemergent control
Procedure: as §2

[15] = system: johnson grass; test: Preemergent control of plant species; format: in vivo, Sorghum halepense; settings: Sorghum halepense, pre-emergence, 336 h; 0.25 lb/acre; read-out: percent preemergent control
Outline: as §1

[16] = system: wild oats; test: Preemergent control of plant species; format: in vivo; settings: Avena fatua, pre-emergence, 336 h; 0.25 lb/acre; read-out: percent preemergent control
Outline: as §1

[17] = system: yellow foxtail; test: Preemergent control of plant species; format: in vivo, Setaria lutescens; settings: Setaria, pre-emergence, 336 h; 0.25 lb/acre; read-out: percent preemergent control
Outline: as §1

[18] = system: yellow nutsedge; test: Preemergent control of plant species; format: in vivo, Cyperus esculentus; settings: Cyperus, pre-emergence, 336 h; 0.25 lb/acre; read-out: percent preemergent control
Outline: as §1

[19] = system: rice; test: Control of aquatic plant species (paddy water); format: in vivo, Oryza sativa; settings: Oryza sativa, 216 h, nine days, read-out: Percent control; for pest or weed control at 31 g/ha: 0.031 Kg/Ha; for pest or weed control at 250 g/ha: 0.25 Kg/Ha
Outline: (§3)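 Plants transplanted at 1-2 inch stage into soil, flooded about 1 inch deep; acetone concentrate of compound injected into paddy water at varied volumes to set concentration. Percent control scored nine days after application.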

[20] = system: barnyardgrass; test: Control of aquatic plant species (paddy water); format: in vivo, Echinochloa crusgalli; settings: Echinochloa crus-galli, 216 h, nine days, read-out: Percent control; for pest or weed control at 31 g/ha: 0.031 Kg/Ha; for pest or weed control at 250 g/ha: 0.25 Kg/Ha
Procedure: In testing for such utility, the plant species to be tested were transplanted into 16 oz. containers into about 2 inches of soil when they were in the 1-2 inch stage and then flooded to a depth of about 1 inch. An acetone concentrate of the chemical to be tested was then injected into the paddy water, the volume injected being varied as desired to provide the desired concentration. Percent control was evaluated nine days after application.

[21] = system: sprangletop; test: Control of aquatic plant species (paddy water); format: in vivo, Leptochloa filiformis; settings: Leptochloa filiformis, 216 h, nine days, read-out: Percent control; for pest or weed control at 31 g/ha: 0.031 Kg/Ha; for pest or weed control at 250 g/ha: 0.25 Kg/Ha
Outline: as §3

[22] = system: yellow nutsedge; test: Control of aquatic plant species (paddy water); format: in vivo, Cyperus esculentus; settings: Cyperus, 216 h, nine days, read-out: Percent control; for pest or weed control at 31 g/ha: 0.031 Kg/Ha; for pest or weed control at 250 g/ha: 0.25 Kg/Ha
Outline: as §3

[23] = system: nitrification of ammonium nitrogen; test: Suppression of nitrification of ammonium nitrogen in soil; settings: 27° C.
Outline: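 Soil (20 g) moistened to its 1/3 bar tension value, mixed with test chemical and incubated sealed for two weeks at 27° C. Nitrate extracted with ammonium sulfate solution and measured by nitrate-specific ion electrode; value given as % NH4-N remaining.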

Structure (SMILES) | plant injury at 280.212 g/ha [1] | plant injury at 280.212 g/ha [2] | plant injury at 280.212 g/ha [3] | plant injury at 280.212 g/ha [4] | pest or weed control at 280.212 g/ha [5] | pest or weed control at 280.212 g/ha [6] | pest or weed control at 280.212 g/ha [7] | pest or weed control at 280.212 g/ha [8] | plant injury at 280.212 g/ha [9] | plant injury at 280.212 g/ha [10] | plant injury at 280.212 g/ha [11] | plant injury at 280.212 g/ha [12] | pest or weed control at 280.212 g/ha [13] | pest or weed control at 280.212 g/ha [14] | pest or weed control at 280.212 g/ha [15] | pest or weed control at 280.212 g/ha [16] | pest or weed control at 280.212 g/ha [17] | pest or weed control at 280.212 g/ha [18] | % NH4-N Remaining After 2 Weeks Incubation ([23]; 0.06 ppm) | % NH4-N Remaining After 2 Weeks Incubation ([23]; 1 ppm) | further results
Cc1cc(C)n2nc(S(=O)(=O)Nc3c(F)cccc3C(=O)OC(C)C)nc2n1 [Compound 51] | 93% | 95% | 90% | 95% | 95% | 80% | 100% | 95% | 97% | 80% | 97% | 97% | 97% | 95% | 95% | 100% | 97% | 100% | 33% | 78% | pest or weed control at 31 g/ha [19]: 0%; pest or weed control at 1000 g/ha ([19]; 1.0 Kg/Ha): 95%; pest or weed control at 31 g/ha [20]: 35%; pest or weed control at 1000 g/ha ([20]; 1.0 Kg/Ha): 97%; pest or weed control at 31 g/ha [21]: 0%; pest or weed control at 1000 g/ha ([21]; 1.0 Kg/Ha): 70%; pest or weed control at 31 g/ha [22]: 93%; pest or weed control at 1000 g/ha ([22]; 1.0 Kg/Ha): 97%; % NH4-N Remaining After 2 Weeks Incubation ([23]; 0.25 ppm): 58%; % NH4-N Remaining After 2 Weeks Incubation ([23]; 4 ppm): 87%
Cc1cc(C)n2nc(S(=O)(=O)Nc3ccccc3C(F)(F)F)nc2n1 [Compound 13, 5,7-Dimethyl-N-(2-trifluoromethylphenyl)-1,2,4-triazolo[1,5-a]pyrimidine-2-sulfonamide] | 95% | 98% | 95% | 98% | 70% | 90% | 95% | 95% | 80% | 95% | 98% | 20% | 95% | 80% | 95% | 10% | 90% | 98% | 73% | 89% | pest or weed control at 250 g/ha [19]: 97%; pest or weed control at 250 g/ha [20]: 93%; pest or weed control at 250 g/ha [21]: 10%; pest or weed control at 250 g/ha [22]: 93%; % NH4-N Remaining After 2 Weeks Incubation ([23]; 0.125 ppm): 78%; % NH4-N Remaining After 2 Weeks Incubation ([23]; 0.25 ppm): 81%; % NH4-N Remaining After 2 Weeks Incubation ([23]; 0.5 ppm): 85%
Cc1cc(C)n2nc(S(=O)(=O)Nc3c(Cl)cccc3Cl)nc2n1 [Compound 22, 5,7-Dimethyl-N-(2,6-dichlorophenyl)-1,2,4-triazolo[1,5-a]pyrimidine-2-sulfonamide] | 95% | 100% | 95% | 98% | 100% | 70% | 100% | 98% | 50% | 90% | 95% | 50% | 95% | 95% | 98% | 90% | 98% | 98% | 69% | 86% | pest or weed control at 250 g/ha [19]: 97%; pest or weed control at 250 g/ha [20]: 97%; pest or weed control at 250 g/ha [21]: 30%; pest or weed control at 250 g/ha [22]: 97%; % NH4-N Remaining After 2 Weeks Incubation ([23]; 0.125 ppm): 77%; % NH4-N Remaining After 2 Weeks Incubation ([23]; 0.25 ppm): 82%; % NH4-N Remaining After 2 Weeks Incubation ([23]; 0.5 ppm): 86%
Cc1ccn2nc(S(=O)(=O)Nc3c(Cl)cccc3Cl)nc2n1 [Compound 143, 5-Methyl-N-(2,6-dichlorophenyl)-1,2,4-triazolo[1,5-a]pyrimidine-2-sulfonamide] | 100% | 95% | 70% | 100% | 100% | 90% | 100% | 97% | 95% | 97% | 99% | 50% | 97% | 100% | 100% | 50% | 97% | 100% | – | 91% | pest or weed control at 31 g/ha [19]: 0%; pest or weed control at 500 g/ha ([19]; 0.5 Kg/Ha): 95%; pest or weed control at 31 g/ha [20]: 95%; pest or weed control at 500 g/ha ([20]; 0.5 Kg/Ha): 99%; pest or weed control at 31 g/ha [21]: 0%; pest or weed control at 500 g/ha ([21]; 0.5 Kg/Ha): 97%; pest or weed control at 31 g/ha [22]: 93%; pest or weed control at 500 g/ha ([22]; 0.5 Kg/Ha): 97%; % NH4-N Remaining After 2 Weeks Incubation ([23]; 0.01 ppm): 50%; % NH4-N Remaining After 2 Weeks Incubation ([23]; 0.1 ppm): 78%; % NH4-N Remaining After 2 Weeks Incubation ([23]; 10 ppm): 100%

From US4740233A, “Substituted 1,2,4-triazolo[1,5-a]-pyrimidine-2-sulfonamides and compositions and methods of controlling undesired vegetation and suppressing the nitrification of ammonium nitrogen in soil” (The Dow Chemical Company, priority 1986, dated 1988)
